For nine compounds, Ki results are on record in patent publication US8188135B2, “Compounds as cannabinoid receptor ligands” (priority 2008, dated 2012).

Read-outs that look alike come from different tables or passages of the source.

For test [1], the target named is T1, human CB2 receptors (Homo sapiens, UniProt P34972).
T1 construct: expressed in transfected cells; host or cells: HEK293
Nature of the test: human CB2 radioligand binding assay ([3H]CP 55,940 competition). The conditions noted are these: HEK293 membranes, 0.5 nM [3H]CP 55,940. The procedure:
(§1) The CB1 and CB2 radioligand binding assays described herein are utilized to ascertain the affinity of compounds of the present application for binding to CB2 relative to CB1 receptors.
HEK293 cells stably expressing human CB2 receptors were grown until a confluent monolayer was formed. Briefly, the cells were harvested and homogenized in TE buffer (50 mM Tris-HCl, 1 mM MgCl2, and 1 mM EDTA) using a polytron for 2×10 second bursts in the presence of protease inhibitors, followed by centrifugation at 45,000×g for 20 minutes. The final membrane pellet was re-homogenized in storage buffer (50 mM Tris-HCl, 1 mM MgCl2, and 1 mM EDTA and 10% sucrose) and frozen at −78° C. until used. Saturation binding reactions were initiated by the addition of membrane preparation (protein concentration of 5 μg/well for human CB2) into wells of a deep well plate containing [^3H]CP 55,940 (120 Ci/mmol, a nonselective CB agonist commercially available from Tocris) in assay buffer (50 mM Tris, 2.5 mM EDTA, 5 mM MgCl2, and 0.5 mg/mL fatty acid free BSA, pH 7.4). After 90 min incubation at 30° C., binding reaction was terminated by the addition of 300 μL/well of cold assay buffer followed by rapid vacuum filtration through a UniFilter-96 GF/C filter plates (pre-soaked in 1 mg/mL BSA for 2 hours). The bound activity was counted in a TopCount using Microscint-20. Saturation experiments were conducted with twelve concentrations of [^3H]CP 55,940 ranging from 0.01 to 8 nM. Competition experiments were conducted with 0.5 nM [^3H]CP 55,940 and five concentrations (0.01 nM to 10 μM) of displacing ligands. The addition of 10 μM unlabeled CP 55,940 (Tocris, Ellisville, Mo.) was used to assess nonspecific binding.

Test [2] addresses T2, rat CB2 (Rattus norvegicus, UniProt Q9QZN9).
T2 sequence (Q9QZN9 1-360): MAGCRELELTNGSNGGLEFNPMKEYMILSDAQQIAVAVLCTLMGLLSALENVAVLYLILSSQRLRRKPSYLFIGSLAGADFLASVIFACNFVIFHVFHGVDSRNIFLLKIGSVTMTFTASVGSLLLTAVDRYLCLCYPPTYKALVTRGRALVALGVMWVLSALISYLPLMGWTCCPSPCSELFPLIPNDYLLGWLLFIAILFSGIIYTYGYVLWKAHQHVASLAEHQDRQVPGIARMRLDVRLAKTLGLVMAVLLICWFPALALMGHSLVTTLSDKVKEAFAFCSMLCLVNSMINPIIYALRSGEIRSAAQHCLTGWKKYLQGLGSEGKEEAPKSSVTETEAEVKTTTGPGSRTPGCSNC
Kind of test: rat CB2 radioligand binding assay ([3H]CP 55,940 competition). The conditions noted are these: HEK293 membranes, 0.5 nM [3H]CP 55,940. Set-up: expressed in transfected cells; host or cells: HEK293. The procedure: as §1
HEK293 cells stably expressing rat CB2 receptors were grown until a confluent monolayer was formed. Briefly, the cells were harvested and homogenized in TE buffer (50 mM Tris-HCl, 1 mM MgCl2, and 1 mM EDTA) using a polytron for 2×10 second bursts in the presence of protease inhibitors, followed by centrifugation at 45,000×g for 20 minutes. The final membrane pellet was re-homogenized in storage buffer (50 mM Tris-HCl, 1 mM MgCl2, and 1 mM EDTA and 10% sucrose) and frozen at −78° C. until used. Saturation binding reactions were initiated by the addition of membrane preparation (protein concentration of 20 μg/well for rat CB2) into wells of a deep well plate containing [^3H]CP 55,940 (120 Ci/mmol, a nonselective CB agonist commercially available from Tocris) in assay buffer (50 mM Tris, 2.5 mM EDTA, 5 mM MgCl2, and 0.5 mg/mL fatty acid free BSA, pH 7.4). After 45 min incubation at 30° C., binding reaction was terminated by the addition of […] of cold assay buffer followed by rapid vacuum filtration through a UniFilter-96 GF/C filter plates (pre-soaked in 1 mg/mL BSA for 2 hours). The bound activity was counted in a TopCount using Microscint-20. Saturation experiments were conducted with twelve concentrations of [^3H]CP 55,940 ranging from 0.01 to 8 nM. Competition experiments were conducted with 0.5 nM [^3H]CP 55,940 and five concentrations of displacing ligands selected from the range of 0.01 nM to 10 μM. The addition of 10 μM unlabeled CP 55,940 (Tocris, Ellisville, Mo.) was used to assess nonspecific binding.

One may read the Ki as a measure of affinity in units of concentration, obtained from inhibition or displacement.

T1 sequence (P34972 whole entry): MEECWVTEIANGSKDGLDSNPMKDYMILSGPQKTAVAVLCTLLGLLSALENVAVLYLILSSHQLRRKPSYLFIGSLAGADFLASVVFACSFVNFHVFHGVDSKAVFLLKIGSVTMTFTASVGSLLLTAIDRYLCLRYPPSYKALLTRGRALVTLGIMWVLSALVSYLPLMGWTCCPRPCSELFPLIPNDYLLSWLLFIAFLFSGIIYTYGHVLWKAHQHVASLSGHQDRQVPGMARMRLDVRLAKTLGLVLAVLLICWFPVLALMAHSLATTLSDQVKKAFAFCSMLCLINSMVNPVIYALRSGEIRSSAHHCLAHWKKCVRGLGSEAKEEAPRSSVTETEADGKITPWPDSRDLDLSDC

As for `Cn1c(C(C)(C)C)c/c(=N\C(=O)c2cc(C(F)(F)F)ccc2OC[C@@H](O)C(C)(C)C)n1C[C@H]1CCCO1` [Example 112, N-{(3E)-5-tert-butyl-1-methyl-2-[(2R)-tetrahydrofuran-2-ylmethyl]-1,2-dihydro-3H-pyrazol-3-ylidene}-2-{[(2S)-2-hydroxy-3,3-dimethylbutyl]oxy}-5-(trifluoromethyl)benzamide], the Ki in test [1] (human CB2 (Ki, nM)) was 6.7 nM; in test [2] (rat CB2 (Ki, nM)), 1.9 nM.

`CN1CCC[C@H]1COc1ccc(C(F)(F)F)cc1C(=O)/N=c1\ccc(C(C)(C)C)cn1C[C@H]1CCCO1` [Example 59, N-[(2E)-5-tert-butyl-1-[(2R)-tetrahydrofuran-2-ylmethyl]pyridin-2(1H)-ylidene]-2-{[(2S)-1-methylpyrrolidin-2-yl]methoxy}-5-(trifluoromethyl)benzamide]: the Ki in test [1] (human CB2 (Ki, nM)) was 294 nM; in test [2] (rat CB2 (Ki, nM)), 69 nM.

`CC(C)[C@H](O)COc1ccc(C(F)(F)F)cc1C(=O)/N=c1\cc(C(C)(C)C)n(C)n1C[C@H]1CCCO1` [Example 111, N-{(3E)-5-tert-butyl-1-methyl-2-[(2R)-tetrahydrofuran-2-ylmethyl]-1,2-dihydro-3H-pyrazol-3-ylidene}-2-{[(2S)-2-hydroxy-3-methylbutyl]oxy}-5-(trifluoromethyl)benzamide]: the Ki in test [1] (human CB2 (Ki, nM)) came out at 1.8 nM; in test [2] (rat CB2 (Ki, nM)) it was 1 nM.

As for `Cn1c(C(C)(C)C)c/c(=N\C(=O)c2cc(C(F)(F)F)ccc2OCCN2CCNC2=O)n1C[C@H]1CCCO1` [Example 48, N-{(3E)-5-tert-butyl-1-methyl-2-[(2R)-tetrahydrofuran-2-ylmethyl]-1,2-dihydro-3H-pyrazol-3-ylidene}-2-[2-(2-oxoimidazolidin-1-yl)ethoxy]-5-(trifluoromethyl)benzamide], the Ki is 251 nM in test [1] (read-out: human CB2 (Ki)) and 53 nM in test [2] (rat CB2 (Ki, nM)).

With `CN1CCC[C@H]1COc1ccc(C(F)(F)F)cc1C(=O)/N=C1\OC(C(C)(C)C)CN1C[C@H]1CCCO1` (stereo partly drawn) [Example 73, N-{(2Z)-5-tert-butyl-3-[(2R)-tetrahydrofuran-2-ylmethyl]-1,3-oxazolidin-2-ylidene}-2-{[(2S)-1-methylpyrrolidin-2-yl]methoxy}-5-(trifluoromethyl)benzamide], the values for the Ki in test [1] (read-out: human CB2 (Ki)) and in test [2] (read-out: rat CB2 (Ki)) were 291 nM and 230 nM, respectively.

Regarding `Cn1c(C(C)(C)C)c/c(=N\C(=O)c2cc(C(F)(F)F)ccc2OC[C@@H]2CCN2S(C)(=O)=O)n1C[C@H]1CCCO1` [Example 67, N-{(3E)-5-tert-butyl-1-methyl-2-[(2R)-tetrahydrofuran-2-ylmethyl]-1,2-dihydro-3H-pyrazol-3-ylidene}-2-{[(2S)-1-(methylsulfonyl)azetidin-2-yl]methoxy}-5-(trifluoromethyl)benzamide], the Ki is > 1000 nM in test [1] (human CB2 (Ki, nM)) and 70 nM in test [2] (rat CB2 (Ki, nM)).

As to `CCC(O)(CC)COc1ccc(C(F)(F)F)cc1C(=O)/N=c1\cc(C(C)(C)C)n(C)n1C[C@H]1CCCO1` [Example 117, N-{(3E)-5-tert-butyl-1-methyl-2-[(2R)-tetrahydrofuran-2-ylmethyl]-1,2-dihydro-3H-pyrazol-3-ylidene}-2-(2-ethyl-2-hydroxybutoxy)-5-(trifluoromethyl)benzamide], the Ki was determined as 83 nM in test [1] (human CB2 (Ki, nM)) and 69 nM in test [2] (rat CB2 (Ki, nM)).

Regarding `CCC(C)(O)COc1ccc(C(F)(F)F)cc1C(=O)/N=c1\cc(C(C)(C)C)n(C)n1C[C@H]1CCCO1` (stereo partly drawn) [Example 110, N-{(3E)-5-tert-butyl-1-methyl-2-[(2R)-tetrahydrofuran-2-ylmethyl]-1,2-dihydro-3H-pyrazol-3-ylidene}-2-(2-hydroxy-2-methylbutoxy)-5-(trifluoromethyl)benzamide], the Ki turned out to be 3.5 nM in test [1] (human CB2 (Ki, nM)) and 1.6 nM in test [2] (rat CB2 (Ki, nM)).

`Cn1c(C(C)(C)C)c/c(=N\C(=O)c2cc(C(F)(F)F)ccc2OCC2CN(S(C)(=O)=O)C2)n1C[C@H]1CCCO1` [Example 54, N-{(3E)-5-tert-butyl-1-methyl-2-[(2R)-tetrahydrofuran-2-ylmethyl]-1,2-dihydro-3H-pyrazol-3-ylidene}-2-{[1-(methylsulfonyl)azetidin-3-yl]methoxy}-5-(trifluoromethyl)benzamide]: the Ki in test [1] (read-out: human CB2 (Ki)) is 192 nM; in test [2] (rat CB2 (Ki, nM)), 71 nM.
